SMILES strings stand for the structures.

One test relates to Spodoptera littoralis. Briefly: Antifeedant activity against final stadium larvae of Spodoptera littoralis in compound-treated sucrose-treated glass-fibre disks assessed as amount of disks eaten at 100 ppm after 18 hr by binary choice feeding bioassay. In kind it is functional.
A further test has as its system Spodoptera frugiperda. As to the kind of experiment: Antifeedant activity against final stadium larvae of Spodoptera frugiperda (fall armyworm) in compound-treated sucrose-treated glass-fibre discs assessed as amount of discs eaten at 100 ppm after 18 hr by binary choice feeding bioassay. The test is classed as functional.

As to `CC[C@H](C)C(=O)O[C@H]1[C@H](O)C[C@@H]2[C@@](C)([C@@H]3C[C@H]4CCO[C@H]4O3)[C@H](C)C[C@H](OC(C)=O)[C@@]2(COC(C)=O)[C@@]12CO2` [14,15-DIHYDROAJUGAPITIN], the AFI in the test on Spodoptera littoralis is 76%; in the test with Spodoptera frugiperda, 74%.
For the compound `CC[C@H](C)C(=O)O[C@H]1[C@@H](O)C[C@@H]2[C@@](C)([C@@H]3C[C@H]4CCO[C@H]4O3)[C@H](C)C[C@H](OC(C)=O)[C@@]2(COC(C)=O)[C@@]12CO2` [IVAIN IV], the AFI in the test on Spodoptera littoralis is 48%; in the test on Spodoptera frugiperda it was 61%.

The values above are taken from ChEMBL document CHEMBL3045176, “Occurrence of the antifeedant 14,15-dihydroajugapitin in the aerial parts of Ajuga iva from Algeria” (2000).
